Assay results reported in US20230279379A1, “METHODS AND MICROFLUIDIC DEVICE FOR PRODUCING EXTRACELLULAR VESICLES” (THE BOARD OF TRUSTEES OF THE UNIVERSITY OF ILLINOIS, priority 2022, published 2023).

System: CD63-K2S^+ MVBs in D1 mouse MSCs
Experiment: Intracellular CD63-K2S+ MVB transport by TIRF microscopy
Assay type: cell-based
Details: Arp2/3 inhibition by CK869
From the text: Lentiviral-Mediated Expression of CD63 Fused with Fluorescent Proteins. Katushka2S (far-red fluorescent protein) was fused with CD63 in a lentiviral expression vector (CD63-K2S vector) and expressed in D1 MSCs according to known methods. The sequence for pHLuorin2 (pH-sensitive green fluorescent protein) was synthesized by GenScript and exchanged with the Katushka2S in the same vector using restriction enzyme cloning. The resulting CD63-pHLuorin2 lentiviral vector was transduced in D1 MSCs in a similar method as the CD63-K2S vector. Cells were selected by treatment with 5 μg/mL puromycin over 3 days and confirmed to express fluorescent signal versus non-transduced cells.
Total Internal Reflection Fluorescence (TIRF) Imaging of Cells on Substrates. To covalently bond crosslinked PEG-DA hydrogel to a thin glass surface, acrylate groups were attached to glass coverslips by silanization. […]
CD63-Katushka2S Data Analysis. […] Intracellular bodies were determined using Gaussian smoothing and local background intensity thresholding (with automatically determined thresholds) to detect surfaces followed by tracking their position (x, y) over time (t). […] Multivescular body (MVB) area was computed for each time t and reported as the mean area across total track time T. Tracks were then analyzed via a custom MATLAB (R2017b, MathWorks) program. Track MSD was calculated as […]

COc1ccc(N2C(=O)CSC2c2cccc(Br)c2)c(OC)c1 (centres unmarked) [CK869]
transport exponent α: ~0.5 | MVB transport (tracks, <MSD> vs t, D0.4s) (soft and stiff substrate): significantly enhanced transport on either substrate
